Reference: patent US20050202089A1 (SANOFI-SYNTHELABO, priority 1996, published 2005)

Assay: solubility of mizolastine in water

Substance: 2-[[1-[1-[(4-fluorophenyl)methyl]-1H-benzimidazol-2-yl]piperid-4-yl]methylamino]-pyrimidin-4-ol [mizolastine]
- solubility in water (neutral pH): 13 µg/mL
- solubility (pH 3): 11000 µg/mL
